From ChEMBL document CHEMBL1201862, “PubChem BioAssay data set” (2004)
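A five-concentration, 48-hour dose response in 96-well plates underlies each endpoint, interpolated linearly between surrounding concentrations. At the GI50, growth is halved.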 Active and inactive are the calls of the source. No stated cut-off is given here; in the data, active = GI50 up to about 1.1 µM and inactive = higher.

Experiments:
Test in all cases: DTP human tumour cell line panel, 48 h
[1] = tested on: CCRF-CEM
[2] = tested on: OVCAR-4
[3] = tested on: HT-29
[4] = tested on: UACC-257
[5] = tested on: A498
[6] = tested on: Malme-3M
[7] = tested on: MDA-N
[8] = tested on: A549
[9] = tested on: IGROV-1
[10] = tested on: SR
[11] = tested on: PC-3
[12] = tested on: U-251
[13] = tested on: MOLT-4
[14] = tested on: OVCAR-3
[15] = tested on: T47D
[16] = tested on: UACC-62
[17] = tested on: ACHN
[18] = tested on: HCT-15
[19] = tested on: UO-31
[20] = tested on: MCF7

Compound	GI50 [1]	GI50 [2]	GI50 [3]	GI50 [4]	GI50 [5]	GI50 [6]	GI50 [7]	GI50 [8]	GI50 [9]	GI50 [10]	GI50 [11]	GI50 [12]	GI50 [13]	GI50 [14]	GI50 [15]	GI50 [16]	GI50 [17]	GI50 [18] [µM]	GI50 [19]	GI50 [20]
O=C(O)CN(CC(=O)O)c1ccccc1	34 µM (inactive)	81.7 µM (inactive)	59.4 µM (inactive)	18.2 µM (inactive)	> 100 µM (inactive)	45.8 µM (inactive)	97.5 µM (inactive)	> 100 µM (inactive)	> 100 µM (inactive)	> 100 µM (inactive)	56 µM (inactive)	74.5 µM (inactive)	> 100 µM (inactive)	75.2 µM (inactive)	37.3 µM (inactive)	32 µM (inactive)	> 100 µM (inactive)	> 100	> 100 µM (inactive)	> 100 µM (inactive)
CCOC(=O)C(NC(=O)CC)(Nc1ccc(S(=O)(=O)Nc2nc(C)cc(C)n2)cc1)C(F)(F)F (stereo not drawn)	> 100 µM (inactive)	> 100 µM (inactive)	> 100 µM (inactive)	> 100 µM (inactive)	> 100 µM (inactive)	> 100 µM (inactive)	> 100 µM (inactive)	> 100 µM (inactive)	> 100 µM (inactive)	> 100 µM (inactive)	> 100 µM (inactive)	> 100 µM (inactive)	> 100 µM (inactive)	> 100 µM (inactive)	> 100 µM (inactive)	> 100 µM (inactive)	> 100 µM (inactive)	> 100	> 100 µM (inactive)	36.6 µM (inactive)
CC1(C)C(=O)C2(OS(=O)(=O)C(F)(F)F)CCC1C2 (stereo not drawn)	> 100 µM (inactive)	> 100 µM (inactive)	> 100 µM (inactive)	> 100 µM (inactive)	> 100 µM (inactive)	> 100 µM (inactive)	> 100 µM (inactive)	> 100 µM (inactive)	> 100 µM (inactive)	1 µM (active)	> 100 µM (inactive)	> 100 µM (inactive)	> 100 µM (inactive)	> 100 µM (inactive)	> 100 µM (inactive)	> 100 µM (inactive)	> 100 µM (inactive)	> 100	> 100 µM (inactive)	> 100 µM (inactive)
N=c1oc2c(Br)cc(Br)cc2cc1C(=O)Nc1ccccn1	41.2 µM (inactive)	68.9 µM (inactive)	44.1 µM (inactive)	> 100 µM (inactive)	> 100 µM (inactive)	52.2 µM (inactive)	> 100 µM (inactive)	65.3 µM (inactive)	> 100 µM (inactive)	91 µM (inactive)	38.5 µM (inactive)	96.6 µM (inactive)	> 100 µM (inactive)	32.3 µM (inactive)	38.8 µM (inactive)	74.8 µM (inactive)	70.5 µM (inactive)	38.9		39.9 µM (inactive)
COC1(CC[C@@H](C)COC2OC(CO)C(O)C(O)C2O)O[C@H]2C[C@H]3[C@@H]4CC=C5C[C@@H](OC6OC(CO)C(OC7OC(C)C(O)C(O)C7O)C(O)C6OC6OC(C)C(O)C(O)C6O)CC[C@]5(C)[C@H]4CC[C@]3(C)[C@H]2[C@@H]1C (stereo partly drawn)	17.9 µM (inactive)	3.54 µM (inactive)	2.68 µM (inactive)	3.51 µM (inactive)	10.2 µM (inactive)	3.01 µM (inactive)	2.61 µM (inactive)	2 µM (inactive)	4.59 µM (inactive)	25.1 µM (inactive)	3.13 µM (inactive)	1.81 µM (inactive)	21.7 µM (inactive)	2.36 µM (inactive)	6.08 µM (inactive)		11.4 µM (inactive)	1.98	2.92 µM (inactive)	6.28 µM (inactive)
C=C1C(=O)OC2/C=C(\CO)CC/C=C(\CO)CC(OC(=O)C(C)C)C12 (stereo not drawn)	2.99 µM (inactive)	19.4 µM (inactive)	14.6 µM (inactive)	12.2 µM (inactive)	21.6 µM (inactive)	2.08 µM (inactive)	5.68 µM (inactive)	20.1 µM (inactive)	15.7 µM (inactive)	4.79 µM (inactive)	16.6 µM (inactive)	18.1 µM (inactive)	3.25 µM (inactive)	11.6 µM (inactive)	4.72 µM (inactive)	14.1 µM (inactive)	1.95 µM (inactive)	3.19	14 µM (inactive)	2.66 µM (inactive)
CNC(=O)O/N=C1\N(C)CN(c2ccccc2)C12CCN(CCCC(=O)c1ccc(F)cc1)CC2	99.3 µM (inactive)	27.6 µM (inactive)	29.1 µM (inactive)	20.1 µM (inactive)	40 µM (inactive)	32.7 µM (inactive)	39.4 µM (inactive)	81.3 µM (inactive)	46.8 µM (inactive)	39.3 µM (inactive)	> 100 µM (inactive)	> 100 µM (inactive)	69 µM (inactive)	55.1 µM (inactive)	> 100 µM (inactive)	> 100 µM (inactive)	83.8 µM (inactive)	> 100	90.8 µM (inactive)	47.9 µM (inactive)
Cc1ccnc2[nH]c3ccccc3c(=O)c12	36.6 µM (inactive)	29 µM (inactive)	15.7 µM (inactive)	39.4 µM (inactive)	28.8 µM (inactive)	19.2 µM (inactive)	21 µM (inactive)		17.5 µM (inactive)	11.5 µM (inactive)	21.8 µM (inactive)	> 10 µM (inactive)	20.4 µM (inactive)	23.7 µM (inactive)	31.3 µM (inactive)	16.9 µM (inactive)	20.5 µM (inactive)	25.5	18 µM (inactive)	21.8 µM (inactive)
CCOC(=O)c1nc2cc(C(F)(F)F)ccc2nc1Oc1ccc(C#N)cc1	70 µM (inactive)	> 100 µM (inactive)		> 100 µM (inactive)	69.8 µM (inactive)	> 100 µM (inactive)	> 100 µM (inactive)	> 100 µM (inactive)	> 100 µM (inactive)	60.7 µM (inactive)	> 100 µM (inactive)	> 100 µM (inactive)	63.2 µM (inactive)	> 100 µM (inactive)	55.7 µM (inactive)	> 100 µM (inactive)	> 100 µM (inactive)	> 100	> 100 µM (inactive)	> 100 µM (inactive)
CC1=NN=C(N)N/C1=C\C(Sc1ccc(Cl)cc1)c1ccc(Cl)cc1Cl (stereo not drawn)	2.33 µM (inactive)	17.1 µM (inactive)	3.59 µM (inactive)	16.8 µM (inactive)	19.2 µM (inactive)	13.4 µM (inactive)	19.7 µM (inactive)	8.34 µM (inactive)	8.61 µM (inactive)	> 100 µM (inactive)	11.6 µM (inactive)	14.2 µM (inactive)	7.29 µM (inactive)		14.2 µM (inactive)	14.7 µM (inactive)	14.2 µM (inactive)	10.9	11.2 µM (inactive)	3.78 µM (inactive)
Cc1cccc2c(=O)c3cccc(CC(=O)O)c3oc12	> 100 µM (inactive)	> 100 µM (inactive)	> 100 µM (inactive)	> 100 µM (inactive)	> 100 µM (inactive)	> 100 µM (inactive)	> 100 µM (inactive)	> 100 µM (inactive)	> 100 µM (inactive)	> 100 µM (inactive)	> 100 µM (inactive)	> 100 µM (inactive)	> 100 µM (inactive)	> 100 µM (inactive)	> 100 µM (inactive)	> 100 µM (inactive)	> 100 µM (inactive)	> 100	> 100 µM (inactive)	> 100 µM (inactive)
Nc1ccc(Nc2cc(O)nc(O)n2)cc1	> 100 µM (inactive)	> 100 µM (inactive)	> 100 µM (inactive)	> 100 µM (inactive)	> 100 µM (inactive)	> 100 µM (inactive)	> 100 µM (inactive)	> 100 µM (inactive)	> 100 µM (inactive)	> 100 µM (inactive)	> 100 µM (inactive)	> 100 µM (inactive)	> 100 µM (inactive)	> 100 µM (inactive)	39.3 µM (inactive)	> 100 µM (inactive)	> 100 µM (inactive)	> 100		> 100 µM (inactive)
CCCCc1c2c(c(C)c3c1C(=O)OC3)Oc1ccccc1O2	0.695 µM (active)	3.56 µM (inactive)		0.428 µM (active)	1.25 µM (inactive)	0.596 µM (active)	0.145 µM (active)	1.73 µM (inactive)	0.608 µM (active)	0.186 µM (active)	0.442 µM (active)	0.57 µM (active)	0.973 µM (active)	0.274 µM (active)	5.11 µM (inactive)	0.535 µM (active)	4.59 µM (inactive)	0.708	5.77 µM (inactive)	1.63 µM (inactive)
CSc1ccccc1P(CCP(c1ccccc1SC)c1ccccc1SC)c1ccccc1SC	0.953 µM (active)	14.3 µM (inactive)	1.28 µM (inactive)	13.5 µM (inactive)	40.4 µM (inactive)	29.9 µM (inactive)	50.5 µM (inactive)	3.96 µM (inactive)	0.8 µM (active)	1.11 µM (active)	0.912 µM (active)	4.2 µM (inactive)	2.22 µM (inactive)	0.543 µM (active)	12.4 µM (inactive)	> 86.5 µM (inactive)	47.2 µM (inactive)	> 67	> 44.4 µM (inactive)	1.95 µM (inactive)
